Publication PMC6907063, “The Herb-Drug Pharmacokinetic Interaction of Fluoxetine and Its Metabolite Norfluoxetine with a Traditional Chinese Medicine in Rats by LC-MS/MS” (Evidence-based Complementary and Alternative Medicine : eCAM, 2019)

What was measured:
[1] = continuous administration of FLU for 2 weeks; cited from earlier work
[2] = Stability of the analytes in QC samples (LC-MS/MS method validation); type: physicochemical, rat; conditions: n = 5
Protocol: Quality control (QC) samples were prepared in the same way as mentioned above. […] All stability studies were evaluated at low, medium, and high QC levels with five determinations for each test. The relative standard deviations (RSDs) were used to evaluate the stability of the analytes. The RSD was expected to be within ±15.0%.

[3] = in vivo; conditions: Sprague-Dawley, rat, po, 1.8 mg/kg
[4] = Pharmacokinetics of fluoxetine and its metabolite norfluoxetine in rat plasma after oral fluoxetine with or without CSGS for 14 d (LC-MS/MS)
[5] = rat, in vivo, po, 1.8 mg/kg

COc1ccc2c(c1)[C@]13CCCC[C@@H]1[C@H](C2)N(C)CC3 [dextromethorphan]
increase of AUC [1]: 27 times

CNCCC(Oc1ccc(C(F)(F)F)cc1)c1ccccc1 (stereo not drawn) [fluoxetine]
Measured C, at room temperature for 4 h ([2]; QC concentration 1 ng/ml): 1.010 ± 0.028 ng/mL | Measured C, freeze-thaw three cycles ([2]; QC concentration 1 ng/ml): 0.997 ± 0.012 ng/mL | Measured C, −20°C for 4 weeks ([2]; QC concentration 1 ng/ml): 0.987 ± 0.018 ng/mL | Measured C, at room temperature for 4 h ([2]; QC concentration 4 ng/ml): 3.965 ± 0.210 ng/mL | Measured C, freeze-thaw three cycles ([2]; QC concentration 4 ng/ml): 3.991 ± 0.212 ng/mL | Measured C, −20°C for 4 weeks ([2]; QC concentration 4 ng/ml): 4.012 ± 0.231 ng/mL | Measured C, at room temperature for 4 h ([2]; QC concentration 16 ng/ml): 15.832 ± 0.536 ng/mL | Measured C, freeze-thaw three cycles ([2]; QC concentration 16 ng/ml): 15.872 ± 0.845 ng/mL | Measured C, −20°C for 4 weeks ([2]; QC concentration 16 ng/ml): 15.872 ± 0.654 ng/mL | Tmax [3]: 0.75 h | Cmax ([3]; C max of fluoxetine): 2.19 ng/mL | CL/F ([3]; CLz/F of fluoxetine): 2490 mL/min/kg | Cmax ([3]; Cmax of fluoxetine): 2.19 ng/mL | MRT last ([3]; MRT (0–t) of fluoxetine): 7.67 ± 1.02 h | half-life ([3]; t1/2z of fluoxetine): 8.95 ± 7.5 h | AUCs (0–∞) of FLU ([4]; FLU group (fluoxetine 1.8 mg/kg·d for 14 d)): 12.20 ± 2.67 μg/L∗h | AUCs (0–∞) of FLU ([4]; multiple dose group A (CSGS […]·d + fluoxetine 1.8 mg/kg·d)): 11.20 ± 3.86 μg/L∗h | AUCs (0–∞) of FLU ([4]; multiple dose group B (CSGS 11.8 g/kg·d + fluoxetine 1.8 mg/kg·d)): 14.54 ± 3.22 μg/L∗h | AUCs (0–∞) of FLU ([4]; multiple dose group C (CSGS 23.6 g/kg·d + fluoxetine 1.8 mg/kg·d)): 22.01 ± 4.49 μg/L∗h | AUC (0–∞) of fluoxetine [5]: 12.20 ± 2.67 ug/L∗h

CC[C@H](C)C(=O)O[C@H]1C[C@@H](C)C=C2C=C[C@H](C)[C@H](CC[C@@H]3C[C@@H](O)CC(=O)O3)[C@H]21 [lovastatin]
effect on AUC [1]: did not affect

Cc1ncc2n1-c1ccc(Cl)cc1C(c1ccccc1F)=NC2 [midazolam]
effect on AUC [1]: did not affect

NCCC(Oc1ccc(C(F)(F)F)cc1)c1ccccc1 (stereo not drawn) [norfluoxetine]
Measured C, at room temperature for 4 h ([2]; QC concentration 2 ng/ml): 1.943 ± 0.054 ng/mL | Measured C, freeze-thaw three cycles ([2]; QC concentration 2 ng/ml): 1.879 ± 0.045 ng/mL | Measured C, −20°C for 4 weeks ([2]; QC concentration 2 ng/ml): 1.873 ± 0.044 ng/mL | Measured C, at room temperature for 4 h ([2]; QC concentration 4 ng/ml): 3.934 ± 0.186 ng/mL | Measured C, freeze-thaw three cycles ([2]; QC concentration 4 ng/ml): 4.012 ± 0.231 ng/mL | Measured C, −20°C for 4 weeks ([2]; QC concentration 4 ng/ml): 3.891 ± 0.156 ng/mL | Measured C, at room temperature for 4 h ([2]; QC concentration 8 ng/ml): 7.897 ± 0.234 ng/mL | Measured C, freeze-thaw three cycles ([2]; QC concentration 8 ng/ml): 7.987 ± 0.341 ng/mL | Measured C, −20°C for 4 weeks ([2]; QC concentration 8 ng/ml): 7.871 ± 0.246 ng/mL

COc1ccc2[nH]c([S+]([O-])Cc3ncc(C)c(OC)c3C)nc2c1 (stereo not drawn) [omeprazole]
increase of AUC [1]: 7.1 times
